Several values for one entry are separate records, joined by “and”; a condition that tells them apart may be missing. Equal values may be shown once. Non-standard residues stand in square brackets, D forms with d. Residues, ends and D or L forms follow the SMILES beside them. *: point of attachment. boroGlu = O=C(O)CC[C@H](N*)B(O)O; Gly(cPr) = N[C@H](C(=O)O)C1CC1
Assays:
[1] = test system: C+ E. faecalis (FA2-2 (pAM714), ATCC 29212); experiment: Solution-phase hemolysis assay with C+ E. faecalis and rabbit erythrocytes; format: cell-based, Enterococcus faecalis
Source text: To test this hypothesis, a solution-phase hemolysis assay was developed, and this assay was used to monitor the effect of 9 on the hemolytic activity of several strains of E. faecalis (Fig. 8A). The cytolysin BGC is part of conjugative plasmid pAD1[64]. E. faecalis FA2-2 (-pAD1) lacks pAD1 and E. faecalis FA2-2 (pAM9055) is defective in cylA[27],[64]. Consistent with previous findings, both strains were not hemolytic (Fig. 8A).
A Treatment of an inoculum (OD600 = 0.35) of washed E. faecalis cells with 100 μM inhibitor 9 ( + 9), in the presence of washed rabbit erythrocytes. The hemolytic activity decreased relative to untreated controls (− 9). In total, four biological replicates (n = 4) for each condition were performed. Error bars represent the standard deviation and are centered at the mean. B Assessment of the ability of inhibitor 9 to block the hemolytic activity of live E. faecalis over a range of inhibitor concentrations under conditions described for (A). […] Errors in the EC50 are the errors calculated during the non-linear concatenate fit. C LCMS analysis of the concentration of CylLS” extracted from overnight cultures of C+ E. faecalis ATCC 29212 treated with 9 or vehicle. CylLS” extract concentrations were determined by comparison to an internal standard of ^15N,^13C-labeled CylLS”. Four biological replicates were performed (n = 4). Errors bars are centered at the mean and represent the standard of deviation. […] Four biological replicates were performed (n = 4). Error bars are centered at the mean and represent the standard of deviation. Statistical significance was calculated using a two sample and two sided t test for (A) and (C) and a one sample one sided t test for (D). **P < 0.01, ***P < 0.001. Source data are provided as a Source Data file.
Rabbit erythrocytes (Hemostat) were washed with cold, sterile PBS and diluted in BHI to a concentration of 1% v/v. A 3 mL overnight culture of E. faecalis was centrifuged (4000 × g, 10 min) and the pellet was resuspended in 7 mL of BHI and the suspension was centrifuged (4000 × g, 10 min). The pellet was resuspended in BHI to achieve an OD600 of 1.4 and 50 µL of this suspension was added to a well containing 50 µL of inhibitor (400 µM). The inhibitor and the E. faecalis were incubated at room temperature for 10 min before adding 100 µL of 1% v/v rabbit erythrocytes in BHI. The inhibitor-free control well contained the same concentration of bacteria and rabbit erythrocytes. The sterile negative control and sterile positive control contained 100 µL of BHI and 100 µL of 1% v/v rabbit erythrocytes. […] The plate was then placed on ice and centrifuged at 1000 × g for 10 min to pellet all the remaining cellular material. The supernatant was diluted 10-fold in PBS and the absorbance at 415 nm was measured. For each condition, four wells were prepared and analyzed.

[2] = test system: CylLS” in C+ E. faecalis ATCC 29212; experiment: Detection of CylLS” from extracts of E. faecalis (LCMS); format: cell-based, Enterococcus faecalis; conditions: for Concentration CylLS (Figure 8C), replicates 1-4: ATCC 29212 overnight culture extract; for Concentration CylLS (Figure 8C), avg: n = 4
Method: To determine if inhibitor 9 blocks the maturation of cytolysin in C+ E. faecalis, an LCMS method was developed to estimate the concentration of CylLS” in cell extracts. This method employed biosynthetically prepared ^15N,^13C-labeled CylLS” as an internal standard. Cultures of E. faecalis were treated with inhibitor 9 or vehicle then lyophilized and extracted with methanol.
An overnight culture of E. faecalis ATCC 29212 was diluted to an OD600 equal to 2.0 in BHI then further diluted 1000-fold in BHI. Inhibitor 9 or vehicle was added immediately after dilution and the inoculated samples were incubated with shaking at 37 °C for 20 h. Following incubation, a 400 µL aliquot of each sample was flash frozen and lyophilized. Each lyophilized sample was extracted with 400 µL of 90% methonal/10% water containing ^15N,^13C-labeled CylLS” (5.8 nM). Alternating rounds of water bath sonication and vortexing were used to homogenize the samples. Once homogenized, the samples were allowed to stand at room temperature for 1 h then were centrifuged at 16,000 g for 10 min, incubated at −20 °C for 1 h, and centrifuged at 16,000 g for 10 min. The supernatant was analyzed by LCMS using injection volumes of 5 µL. EIC corresponding to the exact masses of [M + 2H]^2+ and [M+Na+H]^2+ were integrated and the peak areas were added together giving the total CylLS” and internal standard responses. The concentration of CylLS” was estimated from the response ratio multiplied by the concentration of the internal standard.

[3] = format: in vitro ADME; conditions: 100 µM, 25% human serum, 3 h, 37 °C
Method: Similiarly, 9 was diluted to 100 µM in BHI that was inoculated with E. faecalis ATCC 29212 before incubating at 37 °C for 20 h. The overnight culture was flash frozen and lyophilized. The lyophilized samples were extracted with a volume of 90% methanol/10% water that was equal to the volume of the sample prior to lyophilization. The extract was assumed to have a concentration of 100 µM. […]
Human Serum + 9 Human Serum
Log(Concentration (µM)) Log(Concentration(µM))
Supplementary Figure 19. The stability of inhibitor 9 in the pres ence of human serum or C+ E. faecalis. A ) C y l A i nhibition activity of an extract of human s erum treated with 9 (100 μM) for 3 h at 37 ̊C. The resulting solution was used to determine the remaining activity of the inhibitor in a […]
CylA activity assay. […] This experiment was perform ed on three different samples of inhibitor (n = 3). B) CylA inhibition activity of an extract of E. faecalis that was treated with 9 (100 μM) for 20 h at 37 ̊C (+9 +E. faecalis). The resulting solution was used to determine the remaining activity of the inhibitor in a CylA activity assay. An IC50 equal to 36 ± 3 nM was determin ed. Thes e values are higher than the IC50 for a fresh batch of […]
(also on this page, place not known: determined. inhibition CylA These IC 50 presence serum This performed A) Non-linear fitting v i/vo IC 50. […]

SMILES: CC(=O)NCC(=O)N[C@@H](CC(=O)O)C(=O)N[C@H](C(=O)N[C@@H](CCC(N)=O)C(=O)N[C@@H](C)C(=O)N[C@@H](CCC(=O)O)B(O)O)C1CC1 [Compound 9] (Ac-GD[Gly(cPr)]QA-boroGlu)
- hemolysis, absorbance at 415 nm (Figure 8A), replicates ([1]; ATCC29212 +9, 100 μM): 0.1606 and 0.1785 and 0.1723 and 0.2311
- hemolysis relative to untreated cells ([1]; C+ E. faecalis ATCC 29212, 100 μM, rabbit erythrocytes): significantly reduced
- hemolytic activity relative to untreated cells ([1]; E. faecalis FA2-2 (pAM714), 100 μM, rabbit erythrocytes): significantly reduced
- OD 415 nm (Figure 8B), trials 1 and 2 ([1]; log(concentration of Inhibitor 9 (uM)) 1): 0.3132 and 0.3077
- OD 415 nm (Figure 8B), trials 1 and 2 ([1]; log(concentration of Inhibitor 9 (uM)) 1.39794): 0.3207 and 0.274
- OD 415 nm (Figure 8B), trials 1 and 2 ([1]; log(concentration of Inhibitor 9 (uM)) 1.69897): 0.2734 and 0.2373
- OD 415 nm (Figure 8B), trials 1 and 2 ([1]; log(concentration of Inhibitor 9 (uM)) 1.87506): 0.2493 and 0.2138
- OD 415 nm (Figure 8B), trials 1 and 2 ([1]; log(concentration of Inhibitor 9 (uM)) 2): 0.2161 and 0.1917
- OD 415 nm (Figure 8B), trials 1 and 2 ([1]; log(concentration of Inhibitor 9 (uM)) 2.09691): 0.2085 and 0.1864
- OD 415 nm (Figure 8B), trials 1 and 2 ([1]; log(concentration of Inhibitor 9 (uM)) 2.17609): 0.1972 and 0.1808
- OD 415 nm (Figure 8B), trials 1 and 2 ([1]; log(concentration of Inhibitor 9 (uM)) 2.30103): 0.2237 and 0.2008
- hemolysis, absorbance at 415 nm (Figure 8A), replicates ([1]; pAM714 +9, 100 μM): 0.2309 and 0.2273 and 0.2512 and 0.1929
- quantities of CylLS” less than the untreated control ([2]; 100 µM, on average): 5.5 fold
- Concentration CylLS (Figure 8C), replicates 1-4 ([2]; Conc 1 uM of 9): 1.79 nM and 1.72 nM and 1.6 nM and 1.8 nM
- Concentration CylLS (Figure 8C), avg ([2]; Conc 1 uM of 9): 1.726 nM
- Concentration CylLS (Figure 8C), replicates 1-4 ([2]; Conc 10 uM of 9): 2.34 nM and 2.21 nM and 2.19 nM and 2.55 nM
- Concentration CylLS (Figure 8C), avg ([2]; Conc 10 uM of 9): 2.322 nM
- Concentration CylLS (Figure 8C), replicates 1-4 ([2]; Conc 100 uM of 9): 0.272 nM and 0.227 nM and 0.262 nM and 0.247 nM
- Concentration CylLS (Figure 8C), avg ([2]; Conc 100 uM of 9): 0.2518 nM
- stability in human serum [3]: relatively good stability

Reference: paper PMC12304293, “Combatting virulent gut bacteria by inhibiting the biosynthesis of a two-component lanthipeptide toxin” (Nature Communications, 2025)
